Data as given in patent US20080287398A1, “COLD MENTHOL RECEPTOR-1 ANTAGONISTS” (priority 2007, published 2008).
pIC50: −log10 of the molar value. Several values for one entry are separate records, joined by “and”; a condition that tells them apart may be missing. Identical values can stand only once. Like-named read-outs stand apart in the source and are kept apart here.

Assays:
Male Sprague Dawley rats = test: Inhibition of icilin-induced wet-dog shakes in rats; assay type: in vivo; conditions: rat; 30 mg/kg i.p.; 15′ pre icilin; wet-dog shakes vs vehicle
canine TRPM8 [1] = molecular target: T1, canine TRPM8 (Canis lupus familiaris, UniProt Q1A7N1); test: In vitro canine TRPM8 functional assay (Ca2+-sensitive dye, FLIPR/FDSS, icilin activation); assay type: cell-based; conditions: HEK293 cells expressing canine TRPM8, icilin activation; for inhibition at 1 µM: HEK293, 1 μM compound, read-out: % I (1 μM); for pIC50: eight-point dose-response, read-out: IC50; for % I (0.5 μM): 0.5 μM compound
T1 construct: expressed in transfected cells
Outline: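 Icilin challenge (final concentration producing ~80% of maximal response) followed a 5 min compound exposure in canine TRPM8-HEK293 cells dye-loaded with Calcium 3. Intracellular Ca2+ was read on FLIPR/FDSS. EC50 and IC50 values came from nonlinear sigmoidal dose-response fits of basal-subtracted, percent-of-maximum data averaged over quadruplicates.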

canine TRPM8 [2] = molecular target: T1, canine TRPM8; test: TRPM8 patch clamp assay (whole-cell, HEK293 cells); assay type: cell-based
Protocol: For patch clamp experiments, HEK293 cells stably transfected with canine TRPM8 were cultured in DMEM supplemented with 10% fetal bovine serum, 100 units/ml penicillin, 100 μg/ml streptomycin and 1 mg/ml G418. Cells were maintained at 37° C. and in 5% CO2.
The extracellular solution contained (in mM): NaCl, 132; EGTA, 1; KCl, 5.4; MgCl2, 0.8; HEPES, 10; glucose, 10; pH=7.4. Recordings were performed using the conventional whole-cell patch clamp technique, 1-2 days after plating cells onto glass coverslips at densities appropriate for single cell recording. Currents were amplified by a patch clamp amplifier and filtered at 2 kHz (Axopatch 200B, Molecular Devices, Union City, Calif.). Menthol (100 μM) was applied to the cell at 0.5 ml/min via a gravity-fed perfusion system. Recordings involving menthol activation were performed at 22° C.
In experiments where temperatures were varied, temperature ramps were generated by cooling the perfusate in an in-line cooler (Model SC-20, Warner Instruments, Hamden, Conn.) controlled by a temperature controller (Model CL-100, Warner Instruments). The temperature in the vicinity of the recorded cell was measured with a custom-made miniature thermo-microprobe connected to a monitoring thermometer (Model TH-8, Physitemp, Clifton, N.J.), and sampled using Digidata 1322A and pClamp 9.0 (Molecular Devices), as were the currents concurrently measured in the whole-cell patch clamp mode. The current was continuously sampled (at 100 Hz) at a holding potential of −60 mV.
Compounds were diluted from 10 mM DMSO stocks (stored at −20° C.) into an extracellular solution either containing 100 μM menthol or subjecting to cooling. Increasing concentrations of a compound were applied to a cell in a cumulative manner and concentration-dependent responses were measured after steady-state activation was achieved by either 100 μM menthol or cooling to 10° C. A saturating concentration of a reference antagonist was applied at the end of an experiment (either in the presence of 100 μM menthol or 10° C. temperature) to establish the baseline from which all the other measurements were subtracted.
Percentage inhibition by a compound was calculated as follows: 100×(1−Icomp/I0); where Icomp and I0 are steady-state current amplitudes in either the presence or absence of a concentration of the compound.

male SD rats = test: Chronic constriction injury (CCI) model of neuropathic pain, acetone-induced hypersensitivity; assay type: in vivo; conditions: rat
Protocol: Through the mesh floor a series of five applications of acetone (0.05 mL/application) was sprayed onto the bottom of the paw using a multidose syringe device. A positive response took the form of an abrupt withdrawal or lifting of the paw. The percentage of positive responses from the five trials represented the individual's overall response that was then averaged over the entire treatment group. […] An ascending dose response relationship (as in Table 10 below) was generated by addition of successive doses of test compound followed by re-assessment of behavior.

Sprague-Dawley rats = test: CFA-induced paw radiant heat hypersensitivity; assay type: in vivo, rat; conditions: rat; for inhibition in vivo at 30 mg/kg: read-out: % Reversal
Protocol: Intraplantar injection of Complete Freund's Adjuvant (CFA) in rodents results in a long-lasting inflammatory reaction, characterized by a pronounced hypersensitivity to both thermal and mechanical stimuli. This hypersensitivity peaks between 24-72 hours following injection and can last for several weeks. […] This paradigm also may be conducted with a multiple dosing or a prophylactic dosing regime designed to alter the course of hyperalgesia development. This test predicts the analgesic, anti-allodynic and antihyperalgesic effect of numerous effective clinical agents, including NSAIDS such as acetaminophen, aspirin and ibuprofen, and opioids such as morphine.
Each rat was placed in a test chamber on a warm glass surface and allowed to acclimate for approximately 10 minutes. A radiant thermal stimulus (beam of light) was then focused through the glass onto the plantar surface of each hind paw in turn. The thermal stimulus was automatically shut off by a photoelectric relay when the paw was moved or when the cut-off time was reached (20 seconds for radiant heat at ˜5 Amps). An initial (baseline) response latency to the thermal stimulus was recorded for each animal prior to the injection of CFA. Twenty-four hours following intraplantar CFA injection, the response latency of the animal to the thermal stimulus was then re-evaluated and compared to the animal's baseline response time. […] Immediately following the post-CFA latency assessment, test compound or vehicle (usually Solutol, hydroxypropyl methylcellulose, hydroxypropyl beta-cyclodextrin or PEG-400) was administered i.p. or p.o. to rats. […] The percent reversal (% R) of hypersenstivitiy was calculated according to the following formula:
% Reversal=(Treatment Response-CFA Response)/(Baseline Response-CFA Response)×100.

rats = test: Reversal of icilin-induced behaviors (wet-dog shakes) in rats; assay type: in vivo; conditions: rat; 30 mg/kg p.o.; 1 h post-icilin
Protocol: In this paradigm, icilin-induced shaking was counted for 10 minutes followed by administration of a compound of Formula (I). The diminution of shaking behavior is represented as a percent inhibition relative to icilin-induced shakes in the absence of test compound administration, as described by the following formula: % Inhibition=[1−(WDS count following test compound dose/WDS count prior to test compound dose)]×100.

male CD1 mice = test: Acetic acid graded abdominal irritant test with a 24-hour thioglycolate pretreatment; assay type: in vivo; conditions: mouse; 30 mg/kg p.o.; time 1 h; abdominal contractions vs vehicle
Protocol: A chemical irritant (such as acetic acid, kaolin, bradykinin, phenyl-p-(benzo) quinine, bromo-acetylcholine, or zymosan) is injected in mice intraperitoneally, causing a contraction of the abdominal musculature, which is characterized by an elongation of the body extending through to the hind limbs. The number of such responses is quantitated and is reduced by pretreatment of analgesic agents, thus forming the basis for a screening test (Collier H O et al. Br J Pharmacol Chemother 1968, 32(2): 295-310). This type of abdominal irritant test has been used to predict the analgesic effect of numerous clinically effective agents, the potency of which in the abdominal irritant test parallels the magnitude of the dose needed in the relief of clinical pain.
One modification of the chemically-induced abdominal irritant model of visceral pain is to pretreat animals with agents known to induce inflammatory responses following intraperitoneal injection (such as LPS, zymosan, or thioglycolate). […] Because of the up-regulation of the TRPM8 receptor in inflammation, TRPM8 antagonists that are effective at reducing the mean number of contractions are predicted to provide antiinflammatory action in human clinical use.
The ability of compounds of Formula (I) to mitigate chemical irritant—induced abdominal contractions following a pre-conditioning inflammatory stimulus were studied. […]

[3] = IC50, mode of activation Menthol (100 μM), HEK293 cells stably transfected with canine TRPM8, 100 μM menthol, 22° C.
[4] = read-out: IC50, mode of activation Cold (10° C.), HEK293 cells stably transfected with canine TRPM8, cooling to 10° C.
[5] = read-out: IC50, mode of activation Menthol (100 μM), HEK293 cells stably transfected with canine TRPM8, 100 μM menthol, 22° C.
[6] = 30 mg/kg p.o., time 2 h (printed 2 h or 2)

T1 sequence (Q1A7N1 1-1104): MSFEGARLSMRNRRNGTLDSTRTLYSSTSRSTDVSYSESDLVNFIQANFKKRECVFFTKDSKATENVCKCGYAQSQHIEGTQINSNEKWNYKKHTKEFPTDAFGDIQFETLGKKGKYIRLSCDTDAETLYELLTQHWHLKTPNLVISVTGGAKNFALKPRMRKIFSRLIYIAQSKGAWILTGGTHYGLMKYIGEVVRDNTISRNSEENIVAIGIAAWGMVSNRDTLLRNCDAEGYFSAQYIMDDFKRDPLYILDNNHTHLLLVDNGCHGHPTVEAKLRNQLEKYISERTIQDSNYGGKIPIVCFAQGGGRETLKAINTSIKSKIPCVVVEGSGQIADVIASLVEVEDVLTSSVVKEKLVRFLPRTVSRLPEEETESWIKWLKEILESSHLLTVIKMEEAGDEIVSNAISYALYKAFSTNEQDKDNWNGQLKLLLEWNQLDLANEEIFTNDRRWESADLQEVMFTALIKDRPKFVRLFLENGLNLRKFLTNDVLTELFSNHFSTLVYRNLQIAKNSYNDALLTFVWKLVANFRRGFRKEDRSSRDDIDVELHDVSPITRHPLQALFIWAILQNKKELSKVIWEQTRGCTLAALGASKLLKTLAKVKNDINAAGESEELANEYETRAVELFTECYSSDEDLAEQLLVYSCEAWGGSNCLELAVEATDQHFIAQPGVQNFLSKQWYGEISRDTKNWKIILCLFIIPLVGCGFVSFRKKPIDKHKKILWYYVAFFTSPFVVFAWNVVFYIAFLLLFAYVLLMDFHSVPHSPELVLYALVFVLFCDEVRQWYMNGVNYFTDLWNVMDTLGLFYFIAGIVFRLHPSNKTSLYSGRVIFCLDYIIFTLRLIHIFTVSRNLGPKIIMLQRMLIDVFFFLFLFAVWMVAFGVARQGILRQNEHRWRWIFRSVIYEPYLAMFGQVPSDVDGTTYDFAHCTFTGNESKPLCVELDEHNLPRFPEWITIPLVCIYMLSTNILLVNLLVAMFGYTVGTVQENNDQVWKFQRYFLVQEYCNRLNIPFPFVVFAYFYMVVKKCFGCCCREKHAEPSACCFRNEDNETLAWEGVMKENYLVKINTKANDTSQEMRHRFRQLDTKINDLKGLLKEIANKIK

CCCP(=O)(CCC)C(OCc1ccc(F)c(F)c1)c1sc2ccccc2c1C (centres unmarked) [Cpd 42]
% Inhibition (Male Sprague Dawley rats): 70.6%
inhibition at 1 µM (canine TRPM8 [1]): 100%
pIC50 (canine TRPM8 [1]): 6.82 and 6.85

Cc1c(C(Cc2ccc(F)c(F)c2)P(=O)(OC(C)C)OC(C)C)sc2ncccc12 (centres unmarked) [Cpd 34, [2-(3,4-Difluoro-phenyl)-1-(3-methyl-thieno[2,3-b]pyridin-2-yl)-ethyl]-phosphonic acid diisopropyl ester]
% Inhibition (Male Sprague Dawley rats): 28.8%
inhibition at 1 µM (canine TRPM8 [1]): 100%
pIC50 (canine TRPM8 [1]): 6.92 and 6.82 and 6.70

CC(C)OP(=O)(OC(C)C)[C@H](Cc1ccc(F)c(F)c1)c1sc2ccccc2c1Br [Cpd 235, (R)-[1-(3-Bromo-benzo[b]thiophen-2-yl)-2-(3,4-difluoro-phenyl)-ethyl]-phosphonic acid diisopropyl ester]
pIC50 (canine TRPM8 [2]; [3]): 7.23
% of Allodynic Baseline (male SD rats; 30 mg/kg p.o., preRx 1 hr): 34.3%
inhibition in vivo at 30 mg/kg (Sprague-Dawley rats; po, 30 mg/kg p.o., time 1 h): 45%
pIC50 (canine TRPM8 [1]): 6.60

(S)-[1-(3-Bromo-benzo[b]thiophen-2-yl)-2-(4-fluoro-phenyl)-ethyl]-phosphonic acid diisopropyl ester [Cpd 239]
pIC50 (canine TRPM8 [2]; [4]): 8.24
pIC50 (canine TRPM8 [2]; [5]): 8.52
% of Allodynic Baseline (male SD rats; 30 mg/kg p.o., preRx 1 hr): 29.4%
% Reversal (Sprague-Dawley rats; [6]): 36%
% Inhibition (rats): 48.4%
% I (0.5 μM) (canine TRPM8 [1]): 103, 103%
pIC50 (canine TRPM8 [1]): 7.43 and 7.57 and 7.51

CC(C)OP(=O)(OC(C)C)C(Cc1ccc(F)c(F)c1)c1sc2ccccc2c1Br (centres unmarked) [Cpd 15, [1-(3-Bromo-benzo[b]thiophen-2-yl)-2-(3,4-difluoro-phenyl)-ethyl]-phosphonic acid diisopropyl ester]
% Inhibition (Male Sprague Dawley rats): 71.1%
% I (male CD1 mice): 33%
inhibition in vivo at 30 mg/kg (Sprague-Dawley rats; ip, 30 mg/kg i.p., time 1 h): 95%
inhibition in vivo at 30 mg/kg (Sprague-Dawley rats; po, 30 mg/kg p.o., time 1 h): 82%
ED50 (Sprague-Dawley rats; po, p.o., 3-point dose-response, 10% solutol vehicle, 1 h time point, read-out: oral ED50): 11.4 mg/kg
inhibition at 1 µM (canine TRPM8 [1]): 99%
pIC50 (canine TRPM8 [1]): 7.54 and 7.32 and 6.98

Cc1c(C(Cc2ccc(F)c(F)c2)P(=O)(OCC(C)(C)C)OCC(C)(C)C)sc2ccccc12 (centres unmarked) [Cpd 53, [2-(3,4-Difluoro-phenyl)-1-(3-methyl-benzo[b]thiophen-2-yl)-ethyl]-phosphonic acid bis-(2,2-dimethyl-propyl) ester]
% Inhibition (Male Sprague Dawley rats): 65.6%
inhibition in vivo at 30 mg/kg (Sprague-Dawley rats; ip, 0.5 h, 30 mg/kg i.p., time 30′): 77%
inhibition in vivo at 30 mg/kg (Sprague-Dawley rats; po, 30 mg/kg p.o., time 2 h (printed 2 h or 2)): 44%
inhibition at 1 µM (canine TRPM8 [1]): 100%
pIC50 (canine TRPM8 [1]): 6.66 and 6.59

CC(C)OP(=O)(OC(C)C)C(Cc1ccc(F)c(C(F)(F)F)c1)c1sc2ccccc2c1Br (centres unmarked) [Cpd 241, [1-(3-Bromo-benzo[b]thiophen-2-yl)-2-(4-fluoro-3-trifluoromethyl-phenyl)-ethyl]-phosphonic acid diisopropyl ester]
pIC50 (canine TRPM8 [2]; [3]): 8.80
inhibition in vivo at 30 mg/kg (Sprague-Dawley rats; po, 30 mg/kg p.o., time 1 h): 72%
inhibition at 0.5 µM (canine TRPM8 [1]; HEK293, 0.5 μM compound, read-out: % I (0.5 μM)): 102%
inhibition at 1 µM (canine TRPM8 [1]): 103%
pIC50 (canine TRPM8 [1]): 7.42

(S)-[1-(3-Bromo-benzo[b]thiophen-2-yl)-2-(4-trifluoromethoxy-phenyl)-ethyl]-phosphonic acid diisopropyl ester [Cpd 236]
pIC50 (canine TRPM8 [2]; [4]): 8.54
pIC50 (canine TRPM8 [2]; [5]): 8.85
% of Allodynic Baseline (male SD rats; 30 mg/kg p.o., preRx 4 hr): 28.6%
% of Allodynic Baseline (male SD rats; 100 mg/kg p.o., preRx 4 hr): 68.8%
% Reversal (Sprague-Dawley rats; [6]): 25%
% Inhibition (rats): 36.8%
% I (0.5 μM) (canine TRPM8 [1]): 103, 103%
